# Reference: ChEMBL document CHEMBL3885861, “Open TG-GATES”
# Organism: Rattus norvegicus
# Assay: Open TG-GATES - Regimen: Daily Repeat
# Format: toxicity, organism-based, Sprague-Dawley
# Parameters: regimen Daily Repeat, gender Male, age 6 weeks
# Conditions: in vivo, po, route gavage; for APTT / Bas / Eos / Fbg / Hb / Ht / Lym / MCH / MCHC / MCV / Mono / Neu / PT / Plat / RBC / Ret / WBC: tissue Blood; for LIVER: tissue Liver; for A/G / ALP / ALT / AST / BUN / CRE / Ca / Cl / DBIL / GLC / IP / K / LDH / Na / PL / RALB / TBIL / TC / TG / TP / gamma-GTP: tissue Plasma
# [1] = 0 mg/kg, 72 h, dose level Control, time 3 day
# [2] = 0 mg/kg, […], dose level Control, time 7 day
# [3] = 0 mg/kg, […], dose level Control, time 14 day
# [4] = 0 mg/kg, […], dose level Control, time 28 day
# [5] = 5 mg/kg, 72 h, dose level Low, time 3 day
# [6] = 5 mg/kg, […], dose level Low, time 7 day
# [7] = 5 mg/kg, […], dose level Low, time 14 day
# [8] = 5 mg/kg, […], dose level Low, time 28 day
smiles,measurement,setting,value
C=C(C)[C@H]1Cc2c(ccc3c2O[C@@H]2COc4cc(OC)c(OC)cc4[C@@H]2C3=O)O1 [ROTENONE],TERMINAL_BW,[1],213.4 g
same,APTT,[1],16 s
same,Bas,[1],0%
same,Eos,[1],1%
same,Fbg,[1],211.8 mg/dL
same,Hb,[1],13.2 g/dL
same,Ht,[1],40.7%
same,Lym,[1],77.8%
same,MCH,[1],20.8 pg
same,MCHC,[1],32.4%
same,MCV,[1],64.1 fL
same,Mono,[1],7.8%
same,Neu,[1],14%
same,PT,[1],11.8 s
same,Plat,[1],118 x10_4/uL
same,RBC,[1],635 x10_4/ul
same,Ret,[1],6.1%
same,WBC,[1],92.8 x10_2/uL
same,LIVER,[1],10 g
same,A/G,[1],2.3
same,ALP,[1],1677.6 IU/L
same,ALT,[1],37.8 IU/L
same,AST,[1],67.4 IU/L
same,BUN,[1],18 mg/dL
same,CRE,[1],0.4 mg/dL
same,Ca,[1],11.3 mg/dL
same,Cl,[1],104.2 meq/L
same,DBIL,[1],0.014 mg/dL
same,GLC,[1],187.2 mg/dL
same,IP,[1],7.1 mg/dL
same,K,[1],4.4 meq/L
same,LDH,[1],96.6 IU/L
same,Na,[1],140.6 meq/L
same,PL,[1],141.8 mg/dL
same,RALB,[1],3.8 g/dL
same,TBIL,[1],0.042 mg/dL
same,TC,[1],77.6 mg/dL
same,TG,[1],105 mg/dL
same,TP,[1],5.5 g/dL
same,gamma-GTP,[1],0.4 IU/L
same,TERMINAL_BW,[2],254 g
same,TERMINAL_BW,[3],305.5 g
same,TERMINAL_BW,[4],378.4 g
same,APTT,[2],15.9 s
same,Bas,[2],0%
same,Eos,[2],1%
same,Fbg,[2],239.4 mg/dL
same,Hb,[2],13.2 g/dL
same,Ht,[2],40.2%
same,Lym,[2],80%
same,MCH,[2],21.1 pg
same,MCHC,[2],32.8%
same,MCV,[2],64.3 fL
same,Mono,[2],6%
same,Neu,[2],13.2%
same,PT,[2],11.6 s
same,Plat,[2],122.4 x10_4/uL
same,RBC,[2],626.2 x10_4/ul
same,Ret,[2],5.5%
same,WBC,[2],113.8 x10_2/uL
same,APTT,[3],14.9 s
same,Bas,[3],0%
same,Eos,[3],1%
same,Fbg,[3],241.8 mg/dL
same,Hb,[3],13.9 g/dL
same,Ht,[3],41.9%
same,Lym,[3],73.6%
same,MCH,[3],20.5 pg
same,MCHC,[3],33.1%
same,MCV,[3],61.8 fL
same,Mono,[3],4.6%
same,Neu,[3],21%
same,PT,[3],11.3 s
same,Plat,[3],125.6 x10_4/uL
same,RBC,[3],678.4 x10_4/ul
same,Ret,[3],3.8%
same,WBC,[3],106.4 x10_2/uL
same,APTT,[4],18 s
same,Bas,[4],0%
same,Eos,[4],1%
same,Fbg,[4],217.6 mg/dL
same,Hb,[4],14.9 g/dL
same,Ht,[4],45%
same,Lym,[4],72%
same,MCH,[4],19.7 pg
same,MCHC,[4],33.1%
same,MCV,[4],59.3 fL
same,Mono,[4],7.2%
same,Neu,[4],19.8%
same,PT,[4],12.5 s
same,Plat,[4],115 x10_4/uL
same,RBC,[4],758.8 x10_4/ul
same,Ret,[4],2%
same,WBC,[4],107.2 x10_2/uL
same,LIVER,[2],12.8 g
same,LIVER,[3],14.2 g
same,LIVER,[4],15.3 g
same,A/G,[2],2.1
same,ALP,[2],1286.8 IU/L
same,ALT,[2],35.2 IU/L
same,AST,[2],60.6 IU/L
same,BUN,[2],19 mg/dL
same,CRE,[2],0.4 mg/dL
same,Ca,[2],11.5 mg/dL
same,Cl,[2],104.6 meq/L
same,DBIL,[2],0.014 mg/dL
same,GLC,[2],195.4 mg/dL
same,IP,[2],7.7 mg/dL
same,K,[2],4.5 meq/L
same,LDH,[2],71.8 IU/L
same,Na,[2],140.4 meq/L
same,PL,[2],157.2 mg/dL
same,RALB,[2],3.9 g/dL
same,TBIL,[2],0.034 mg/dL
same,TC,[2],81.2 mg/dL
same,TG,[2],132.2 mg/dL
same,TP,[2],5.8 g/dL
same,gamma-GTP,[2],1 IU/L
same,A/G,[3],2.1
same,ALP,[3],1512 IU/L
same,ALT,[3],36.4 IU/L
same,AST,[3],67.2 IU/L
same,BUN,[3],18.4 mg/dL
same,CRE,[3],0.4 mg/dL
same,Ca,[3],11.5 mg/dL
same,Cl,[3],104.8 meq/L
same,DBIL,[3],0.01 mg/dL
same,GLC,[3],186 mg/dL
same,IP,[3],6.9 mg/dL
same,K,[3],4.5 meq/L
same,LDH,[3],111.6 IU/L
same,Na,[3],139.6 meq/L
same,PL,[3],156 mg/dL
same,RALB,[3],4 g/dL
same,TBIL,[3],0.03 mg/dL
same,TC,[3],80 mg/dL
same,TG,[3],131.8 mg/dL
same,TP,[3],5.9 g/dL
same,gamma-GTP,[3],1 IU/L
same,A/G,[4],2
same,ALP,[4],1248 IU/L
same,ALT,[4],32.2 IU/L
same,AST,[4],58.6 IU/L
same,BUN,[4],18.2 mg/dL
same,CRE,[4],0.4 mg/dL
same,Ca,[4],10.9 mg/dL
same,Cl,[4],106.8 meq/L
same,DBIL,[4],0.01 mg/dL
same,GLC,[4],182.2 mg/dL
same,IP,[4],5.7 mg/dL
same,K,[4],4.5 meq/L
same,LDH,[4],62.8 IU/L
same,Na,[4],141.2 meq/L
same,PL,[4],134.8 mg/dL
same,RALB,[4],3.8 g/dL
same,TBIL,[4],0.03 mg/dL
same,TC,[4],62 mg/dL
same,TG,[4],182.2 mg/dL
same,TP,[4],5.7 g/dL
same,gamma-GTP,[4],1 IU/L
same,TERMINAL_BW,[5],226.1 g
same,APTT,[5],17.7 s
same,Bas,[5],0%
same,Eos,[5],1%
same,Fbg,[5],212.2 mg/dL
same,Hb,[5],13 g/dL
same,Ht,[5],39.1%
same,Lym,[5],76.2%
same,MCH,[5],21.3 pg
same,MCHC,[5],33.2%
same,MCV,[5],64.1 fL
same,Mono,[5],5.6%
same,Neu,[5],17.2%
same,PT,[5],12.1 s
same,Plat,[5],129 x10_4/uL
same,RBC,[5],610.6 x10_4/ul
same,Ret,[5],7.7%
same,WBC,[5],114.4 x10_2/uL
same,LIVER,[5],11.2 g
same,A/G,[5],2.2
same,ALP,[5],1376 IU/L
same,ALT,[5],37.2 IU/L
same,AST,[5],67.4 IU/L
same,BUN,[5],19.2 mg/dL
same,CRE,[5],0.4 mg/dL
same,Ca,[5],11.6 mg/dL
same,Cl,[5],104.8 meq/L
same,DBIL,[5],0.014 mg/dL
same,GLC,[5],188.2 mg/dL
same,IP,[5],7.5 mg/dL
same,K,[5],4.5 meq/L
same,LDH,[5],111.2 IU/L
same,Na,[5],142.4 meq/L
same,PL,[5],152.4 mg/dL
same,RALB,[5],3.8 g/dL
same,TBIL,[5],0.032 mg/dL
same,TC,[5],85.6 mg/dL
same,TG,[5],78 mg/dL
same,TP,[5],5.6 g/dL
same,gamma-GTP,[5],0.4 IU/L
same,TERMINAL_BW,[6],258.8 g
same,TERMINAL_BW,[7],318.2 g
same,TERMINAL_BW,[8],393.8 g
same,APTT,[6],15.9 s
same,Bas,[6],0%
same,Eos,[6],0.8%
same,Fbg,[6],227.4 mg/dL
same,Hb,[6],13.4 g/dL
same,Ht,[6],40.6%
same,Lym,[6],68.2%
same,MCH,[6],21.5 pg
same,MCHC,[6],33%
same,MCV,[6],65.3 fL
same,Mono,[6],9.6%
same,Neu,[6],21.6%
same,PT,[6],11.6 s
same,Plat,[6],117.4 x10_4/uL
same,RBC,[6],622.8 x10_4/ul
same,Ret,[6],5.7%
same,WBC,[6],93.6 x10_2/uL
same,APTT,[7],15.7 s
same,Bas,[7],0%
same,Eos,[7],1%
same,Fbg,[7],238.2 mg/dL
same,Hb,[7],13.9 g/dL
same,Ht,[7],41.7%
same,Lym,[7],75.8%
same,MCH,[7],20.6 pg
same,MCHC,[7],33.2%
same,MCV,[7],62.2 fL
same,Mono,[7],5.2%
same,Neu,[7],18.4%
same,PT,[7],11.4 s
same,Plat,[7],130.8 x10_4/uL
same,RBC,[7],671.4 x10_4/ul
same,Ret,[7],3.8%
same,WBC,[7],138.2 x10_2/uL
same,APTT,[8],19 s
same,Bas,[8],0%
same,Eos,[8],1.2%
same,Fbg,[8],204.2 mg/dL
same,Hb,[8],14.7 g/dL
same,Ht,[8],44.3%
same,Lym,[8],74.6%
same,MCH,[8],19.3 pg
same,MCHC,[8],33.2%
same,MCV,[8],58.2 fL
same,Mono,[8],5%
same,Neu,[8],19.6%
same,PT,[8],12.6 s
same,Plat,[8],117.6 x10_4/uL
same,RBC,[8],761.4 x10_4/ul
same,Ret,[8],2.1%
same,WBC,[8],107.4 x10_2/uL
same,LIVER,[6],13.1 g
same,LIVER,[7],15.3 g
same,LIVER,[8],16.3 g
same,A/G,[6],2.1
same,ALP,[6],1367.8 IU/L
same,ALT,[6],39.6 IU/L
same,AST,[6],65 IU/L
same,BUN,[6],18.2 mg/dL
same,CRE,[6],0.4 mg/dL
same,Ca,[6],11.7 mg/dL
same,Cl,[6],103.2 meq/L
same,DBIL,[6],0.018 mg/dL
same,GLC,[6],202.2 mg/dL
same,IP,[6],7.4 mg/dL
same,K,[6],4.4 meq/L
same,LDH,[6],110.6 IU/L
same,Na,[6],140 meq/L
same,PL,[6],150.8 mg/dL
same,RALB,[6],3.8 g/dL
same,TBIL,[6],0.04 mg/dL
same,TC,[6],79.4 mg/dL
same,TG,[6],106.6 mg/dL
same,TP,[6],5.6 g/dL
same,gamma-GTP,[6],0.6 IU/L
same,A/G,[7],2.1
same,ALP,[7],1397.6 IU/L
same,ALT,[7],36.6 IU/L
same,AST,[7],68 IU/L
same,BUN,[7],19.4 mg/dL
same,CRE,[7],0.4 mg/dL
same,Ca,[7],11.8 mg/dL
same,Cl,[7],105 meq/L
same,DBIL,[7],0.012 mg/dL
same,GLC,[7],188.6 mg/dL
same,IP,[7],6.9 mg/dL
same,K,[7],4.6 meq/L
same,LDH,[7],142.4 IU/L
same,Na,[7],139.2 meq/L
same,PL,[7],164.2 mg/dL
same,RALB,[7],3.9 g/dL
same,TBIL,[7],0.03 mg/dL
same,TC,[7],85.4 mg/dL
same,TG,[7],152.4 mg/dL
same,TP,[7],5.8 g/dL
same,gamma-GTP,[7],1 IU/L
same,A/G,[8],1.8
same,ALP,[8],1025.4 IU/L
same,ALT,[8],33 IU/L
same,AST,[8],64.2 IU/L
same,BUN,[8],18 mg/dL
same,CRE,[8],0.4 mg/dL
same,Ca,[8],10.7 mg/dL
same,Cl,[8],105.8 meq/L
same,DBIL,[8],0.01 mg/dL
same,GLC,[8],175.2 mg/dL
same,IP,[8],6.2 mg/dL
same,K,[8],4.5 meq/L
same,LDH,[8],101.8 IU/L
same,Na,[8],141.2 meq/L
same,PL,[8],134.8 mg/dL
same,RALB,[8],3.8 g/dL
same,TBIL,[8],0.032 mg/dL
same,TC,[8],65.6 mg/dL
same,TG,[8],143 mg/dL
same,TP,[8],6 g/dL
same,gamma-GTP,[8],1 IU/L
